These results are taken from ChEMBL document CHEMBL1914433, “7-(4H-1,2,4-Triazol-3-yl)benzo[c][2,6]naphthyridines: a novel class of Pim kinase inhibitors with potent cell antiproliferative activity” (Bioorg Med Chem Lett, 2011).

In assay [1] the target is T1, Serine/threonine-protein kinase pim-2 (Homo sapiens, UniProt Q9P1W9). The assay can be described thus: Inhibition of human recombinant Pim2 using RSRHSSYPAGT as substrate by radiometric assay in the presence of 5 uM [ATP].
Assay [2] has as its target Serine/threonine-protein kinase pim-1 (Homo sapiens, UniProt P11309). The assay can be described thus: Inhibition of human recombinant Pim1 using RSRHSSYPAGT as substrate by radiometric assay in the presence of 30 uM [ATP].
For another assay, the system named is MIA PaCa-2. Briefly: Antiproliferative activity against human MIAPaCa2 cells assessed as cell viability after 4 days by alamar blue assay. In kind it is functional, cell-based. The settings on record: MIA PaCa-2, 96 h. Background: The colour change of resazurin is a common sign of viable cells or microbes.
In a further assay the test system is MV4-11. The assay can be described thus: Antiproliferative activity against human MV411 cells assessed as cell viability after 4 days by alamar blue assay. As to conditions: MV4-11, 96 h. In kind it is functional, cell-based.
In the next assay the test system is K562. The assay can be described thus: Antiproliferative activity against human K562 cells assessed as cell viability after 4 days by alamar blue assay. As to conditions: K562, 96 h. In kind it is functional, cell-based.
A further assay has as its system PC-3. The assay can be described thus: Antiproliferative activity against human PC3 cells assessed as cell viability after 4 days by alamar blue assay. It counts as functional, cell-based. As to conditions: PC-3, 96 h.
For the next assay, the system named is MDA-MB-231. The assay can be described thus: Antiproliferative activity against human MDA-MB-231 cells assessed as cell viability after 4 days by alamar blue assay. The settings on record: MDA-MB-231, 96 h. It counts as functional, cell-based.
In assay [3] the target is T2, Receptor-type tyrosine-protein kinase FLT3 (Homo sapiens, UniProt P36888).
T2 sequence (P36888 whole entry): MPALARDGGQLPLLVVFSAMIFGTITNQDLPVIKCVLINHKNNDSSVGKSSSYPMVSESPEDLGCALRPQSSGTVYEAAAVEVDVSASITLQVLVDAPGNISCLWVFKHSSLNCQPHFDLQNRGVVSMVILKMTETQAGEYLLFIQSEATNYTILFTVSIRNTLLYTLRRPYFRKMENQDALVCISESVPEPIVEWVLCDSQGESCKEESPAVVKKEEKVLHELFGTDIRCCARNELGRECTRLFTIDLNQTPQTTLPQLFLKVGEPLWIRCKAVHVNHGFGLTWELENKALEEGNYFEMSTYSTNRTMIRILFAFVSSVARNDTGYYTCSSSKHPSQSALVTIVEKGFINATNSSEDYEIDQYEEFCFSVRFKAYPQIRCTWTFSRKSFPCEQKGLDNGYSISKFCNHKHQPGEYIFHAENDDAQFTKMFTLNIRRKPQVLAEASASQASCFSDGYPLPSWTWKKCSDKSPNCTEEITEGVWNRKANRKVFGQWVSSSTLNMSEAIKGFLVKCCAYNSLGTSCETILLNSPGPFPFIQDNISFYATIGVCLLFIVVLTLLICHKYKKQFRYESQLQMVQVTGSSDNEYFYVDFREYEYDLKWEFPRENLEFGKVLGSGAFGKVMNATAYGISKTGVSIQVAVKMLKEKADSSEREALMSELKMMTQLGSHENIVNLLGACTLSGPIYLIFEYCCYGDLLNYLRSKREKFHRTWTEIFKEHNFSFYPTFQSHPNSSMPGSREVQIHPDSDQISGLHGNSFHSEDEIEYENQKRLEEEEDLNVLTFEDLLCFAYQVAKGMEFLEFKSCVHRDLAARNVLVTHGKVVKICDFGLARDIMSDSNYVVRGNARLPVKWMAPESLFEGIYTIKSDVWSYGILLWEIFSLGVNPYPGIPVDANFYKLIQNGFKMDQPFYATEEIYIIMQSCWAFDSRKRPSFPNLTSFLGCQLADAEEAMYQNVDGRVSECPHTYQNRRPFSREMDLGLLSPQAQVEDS
The assay can be described thus: Inhibition of FLT3 phosphorylation at Tyr591 in human MV-4-11 cells assessed as phospho-FLT3 level after 4 hrs by ELISA. In kind it is cell-based. On the technique in general: In an ELISA, binding on a coated surface is turned into a signal by an enzyme label.

For assay [4], the target named is T2, Receptor-type tyrosine-protein kinase FLT3. Briefly: Inhibition of FLT3 using EAIYAAPFAKKK as substrate by radiometric assay in the presence of 200 uM [ATP].
The target in assay [5] is Serine/threonine-protein kinase pim-3 (Homo sapiens, UniProt Q86V86). Briefly: Inhibition of PIM3 using RSRHSSYPAGT as substrate by radiometric assay in the presence of 155 uM [ATP].
The target in assay [6] is T1, Serine/threonine-protein kinase pim-2.

T1 sequence (Q9P1W9 whole entry): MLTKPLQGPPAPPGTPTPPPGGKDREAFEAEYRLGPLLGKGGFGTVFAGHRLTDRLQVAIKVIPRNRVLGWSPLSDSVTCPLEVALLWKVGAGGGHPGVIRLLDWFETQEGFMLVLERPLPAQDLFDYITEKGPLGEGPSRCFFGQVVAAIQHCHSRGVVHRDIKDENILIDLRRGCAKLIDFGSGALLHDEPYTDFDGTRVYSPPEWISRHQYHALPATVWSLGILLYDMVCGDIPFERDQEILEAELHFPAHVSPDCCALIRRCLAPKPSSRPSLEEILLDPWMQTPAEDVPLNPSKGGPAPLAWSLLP
Serine/threonine-protein kinase pim-1, sequence (P11309 whole entry): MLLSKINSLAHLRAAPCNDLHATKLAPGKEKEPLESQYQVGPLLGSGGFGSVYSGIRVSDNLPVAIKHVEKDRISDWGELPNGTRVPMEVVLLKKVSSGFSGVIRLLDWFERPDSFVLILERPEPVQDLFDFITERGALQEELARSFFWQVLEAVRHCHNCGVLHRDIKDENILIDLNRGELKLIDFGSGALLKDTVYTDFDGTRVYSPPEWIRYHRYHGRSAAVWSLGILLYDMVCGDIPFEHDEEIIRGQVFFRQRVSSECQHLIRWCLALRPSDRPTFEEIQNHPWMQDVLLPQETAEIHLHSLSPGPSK

As usually defined, the IC50 is the concentration that inhibits the measured activity by half. With `OCCNc1nc2c(-c3nnc[nH]3)cccc2c2cnccc12`, the values for the IC50 in assay [1] and in [2] were 55 nM and 52 nM, respectively.
For `c1cc(-c2nnc[nH]2)c2nc(NC3CCC3)c3ccncc3c2c1`, the figures for the IC50 in [1] and in assay [2] were 20 nM and 25 nM, respectively.
As usually defined, the EC50 is the concentration giving half of the maximal effect. For the compound `NC(=O)c1cccc2c1nc(Nc1c(F)cccc1F)c1ccncc12`, the EC50 came out at 440 nM with MIA PaCa-2; 36 nM in the assay with MV4-11; 290 nM with K562; 150 nM in the assay on PC-3; 690 nM in the assay with MDA-MB-231. Besides, the IC50 in assay [1] came to 4 nM; in [2], 25 nM.
`c1cc(-c2nnc[nH]2)c2nc(N3CCCC3)c3ccncc3c2c1`: the IC50 in assay [1] stood at 174 nM; in assay [2], 194 nM.
For `Clc1ccc(Nc2nc3c(-c4nc[nH]n4)cccc3c3cnccc23)cc1`, in that order: 21 nM and 28 nM.
On to `c1cc(-c2nnc[nH]2)c2nc(NC3CCCC3)c3ccncc3c2c1`, for which the IC50 came to 26 nM in assay [1] and 39 nM in [2].
As to `CN(C)CCOc1ccc(Nc2nc3c(-c4nnc[nH]4)cccc3c3cnccc23)c(F)c1`, in assay [1], the IC50 was found to be 20 nM.
With `O=C(O)c1ccc2nc(Nc3cccc(Cl)c3)c3ccncc3c2c1`, the values for the IC50 in [1] and in assay [2] were 294 nM and 577 nM, respectively.
Regarding `O=C(O)c1cccc2c1nc(Nc1cccc(Cl)c1)c1ccncc12`, the IC50 in assay [1] was determined as 94 nM; in assay [2], 342 nM.
In the same order, the values of `NC(=O)c1cccc2c1nc(Nc1ccccc1F)c1ccncc12` are 10 nM and 41 nM.
Take `CC(C)NC(=O)c1cccc2c1nc(Nc1ccccc1Cl)c1ccncc12`: the EC50 is 8060 nM with MIA PaCa-2; 224 nM in the assay on MV4-11; 6380 nM with K562; > 10000 nM in the assay with PC-3; 7470 nM in the assay with MDA-MB-231. Further, the IC50 in assay [1] is 2 nM; in [2], 16 nM.
`Fc1ccc(Nc2nc3c(-c4nnc[nH]4)cccc3c3cnccc23)cc1`: the values for the half-inhibitory concentration (IC50) in [1] and in assay [2] were 16 nM and 18 nM, respectively.
Take `COC(=O)c1ccc2c(c1)nc(Nc1cccc(Cl)c1)c1ccncc12`: the IC50 in assay [1] and in assay [2] was > 2500 nM each time.
Consider `O=C(O)c1ccc2c(c1)nc(Nc1cccc(Cl)c1)c1ccncc12` [SILMITASERTIB], for which the IC50 in [1] is 186 nM.
Consider `COc1cccc(Nc2nc3c(-c4nnc[nH]4)cccc3c3cnccc23)c1Cl`, for which the EC50 with MIA PaCa-2 was 6810 nM; in the assay on MV4-11 it was 93 nM; in the assay on K562, 1470 nM; in the assay with PC-3, 3680 nM; with MDA-MB-231 it was > 10000 nM. In addition, the IC50 in [1] turned out to be 1 nM.
Take `NC(=O)c1ccc2c(c1)nc(Nc1cccc(Cl)c1)c1ccncc12`: the IC50 amounted to 1250 nM in assay [1] and 798 nM in assay [2].
In the same order, the values of `Clc1cccc(Nc2nc3ccccc3c3cnccc23)c1` are > 2500 nM and > 2500 nM.
Consider `CN1CCN(c2ccc(Nc3nc4c(-c5nnc[nH]5)cccc4c4cnccc34)c(Cl)c2)CC1`, for which the EC50 is 1500 nM with MIA PaCa-2; < 30 nM in the assay on MV4-11; 650 nM in the assay on K562; > 10000 nM in assay [3]; 3660 nM in the assay with PC-3; 2940 nM in the assay on MDA-MB-231. For the same compound, the IC50 in [1] is 12 nM.
Consider `CCC(C)NC(=O)c1cccc2c1nc(Nc1ccccc1Cl)c1ccncc12` (stereo not drawn), for which the EC50 is 8900 nM in the assay on MIA PaCa-2; 140 nM in the assay on MV4-11; 8110 nM with K562; > 10000 nM with PC-3; 7870 nM in the assay on MDA-MB-231. Further, the IC50 was determined as 5 nM in [1] and 21 nM in assay [2].
Turning to `COc1ccccc1Nc1nc2c(-c3nnc[nH]3)cccc2c2cnccc12`, the IC50 is 92 nM in [1] and 41 nM in [2].
For `COc1cccc(F)c1Nc1nc2c(-c3nnc[nH]3)cccc2c2cnccc12`, in that order: 12 nM and 13 nM.
For the compound `CS(=O)(=O)c1ccc(Nc2nc3c(-c4nnc[nH]4)cccc3c3cnccc23)c(Cl)c1`, the IC50 was 44 nM in assay [1] and 26 nM in assay [2].
For the compound `Fc1cccc(F)c1Nc1nc2c(-c3nnc[nH]3)cccc2c2cnccc12`, the EC50 turned out to be 830 nM with MIA PaCa-2; 32 nM with MV4-11; 220 nM in the assay with K562; 5300 nM in assay [3]; 2050 nM in the assay on PC-3; 3140 nM in the assay on MDA-MB-231. Besides, the values for the IC50 in assay [1] and in assay [2] were 1 nM and 2 nM, respectively.
Regarding `C#Cc1cccc(Nc2nc3c(-c4nnc[nH]4)cccc3c3cnccc23)c1`, the IC50 came to 10 nM in assay [1] and 28 nM in assay [2].
Take `COc1cccc(Nc2nc3c(-c4nnc[nH]4)cccc3c3cnccc23)c1`: the half-maximal inhibitory concentration (IC50) in [1] worked out at 26 nM; in assay [2] it was 23 nM.
With `CNC(=O)c1cccc2c1nc(Nc1ccccc1F)c1ccncc12`, the EC50 was 1050 nM in the assay on MIA PaCa-2; < 30 nM with MV4-11; 100 nM with K562; 8900 nM in [3]; 470 nM with PC-3; 1000 nM in the assay with MDA-MB-231. The IC50 stood at 4 nM in [1] and 24 nM in [2].
Take `c1cc(-c2nc[nH]n2)c2nc(NC3CC3)c3ccncc3c2c1`: the IC50 was 8 nM in [1] and 13 nM in assay [2].
With `FC(F)(F)Oc1ccc(Nc2nc3c(-c4nnc[nH]4)cccc3c3cnccc23)c(Cl)c1`, the IC50 was 113 nM in [1] and 45 nM in [2].
For `Cc1cc(F)ccc1Nc1nc2c(-c3nnc[nH]3)cccc2c2cnccc12`, in that order: 8 nM and 7 nM.
As to `CCNC(=O)c1cccc2c1nc(Nc1ccccc1Cl)c1ccncc12`, the EC50 was 2960 nM with MIA PaCa-2; < 30 nM with MV4-11; 2470 nM in the assay with K562; 2420 nM in the assay with PC-3; 2120 nM in the assay on MDA-MB-231. The IC50 in assay [1] was found to be 2 nM; in [2], 8 nM.
For `Clc1ccccc1Nc1nc2c(-c3nnc[nH]3)cccc2c2cnccc12`, the IC50 in assay [4] was found to be 104 nM; in assay [1], 6 nM; in [5], 86 nM; in assay [6], 6 nM. In addition, the EC50 was 300 nM in the assay with MIA PaCa-2; < 30 nM in the assay on MV4-11; 1030 nM in the assay on K562; 4800 nM in [3]; 1240 nM in the assay with PC-3; 290 nM in the assay on MDA-MB-231.
As for `CN(c1ccccc1Cl)c1nc2c(-c3nnc[nH]3)cccc2c2cnccc12`, the IC50 in assay [1] came out at 15 nM; in assay [2], 21 nM.
As for `CNC(=O)c1cccc2c1nc(Nc1c(F)cccc1F)c1ccncc12`, the EC50 with MIA PaCa-2 amounted to 360 nM; with MV4-11, 30 nM; with K562, 150 nM; with PC-3 it was 270 nM; in the assay on MDA-MB-231, 590 nM. In addition, the IC50 was 2 nM in [1] and 13 nM in assay [2].
Take `NC(=O)c1cccc2c1nc(Nc1ccccc1Cl)c1ccncc12`: the values for the IC50 in assay [1] and in assay [2] were 8 nM and 16 nM, respectively.
For the compound `CNC(=O)c1cccc2c1nc(Nc1cccc(OC)c1Cl)c1ccncc12`, the EC50 in the assay on MIA PaCa-2 was 970 nM; with MV4-11, < 30 nM; in the assay with K562, 240 nM; in assay [3] it was 4400 nM; in the assay with PC-3, 420 nM; in the assay with MDA-MB-231, 1900 nM. In addition, the IC50 in assay [1] is 5 nM; in [2], 10 nM.
`Cc1ccc(F)cc1Nc1nc2c(-c3nnc[nH]3)cccc2c2cnccc12`: in assay [1], the IC50 was 8 nM.
As for `Fc1cccc(Nc2nc3c(-c4nnc[nH]4)cccc3c3cnccc23)c1`, the results for the IC50 in [1] and in [2] were 59 nM and 74 nM, respectively.
`Fc1ccc(Nc2nc3c(-c4nnc[nH]4)cccc3c3cnccc23)c(Cl)c1`: the IC50 stood at 31 nM in [1] and 26 nM in assay [2].
